Data set [1] can be described thus: Pharmacokinetic study in rats (intragastric administration and intravenous injection, LC/MS/MS). The following applies: rat; for Vd/F / AUC / CL/F / half-life / Cmax / MRT / Vd / clearance: both sexes, SD, plasma; for Vd/F: read-out: Apparent volume of distribution Vz/F; for AUC: read-out: Area under curve AUC; for CL/F: read-out: Clearance CL/F; for half-life: read-out: Half-life t½ (converted); for Cmax: read-out: Plasma concentration Cmax; for MRT: read-out: Residence time MRT; for Vd: read-out: Apparent volume of distribution Vz; for clearance: read-out: Clearance CL. In kind it is in vivo, SD rats. As to the method:
With rats as test animals, the plasma concentration of the compound of Example 2 and a comparative compound A (see compound (1) of Example 3 in WO2016135052A1) were determined by LC/MS/MS at different time points after intragastric administration and intravenous injection to the rats. The pharmacokinetic behavior in rats of the compound disclosed herein was studied and its pharmacokinetic profile was evaluated.
16 healthy adult SD rats (half male and half female, purchased from Vital River Laboratory Animal Technology Co., Ltd.) were evenly divided into 4 groups.
A certain amount of the compound was weighed out, and 5% of DMSO, 5% of Tween 80, and 90% of normal saline were added to give a colorless and clear solution.
Intragastric administration group: SD rats were fasted overnight, and then the compound was administered intragastrically to the rats at a dose of 2 mg/kg and a volume of 10.0 mL/kg.
Intravenous administration group: SD rats were fasted overnight, and then the compound was administered to the rats by intravenous injection at a dose of 1 mg/kg and a volume of 5.0 mL/kg.
Intragastric administration group: The compound of Example 2 and the comparative compound A were administered intragastrically to the rats, and 0.1 mL of blood was collected from the orbit before administration and 0.25 h, 0.5 h, 1.0 h, 2.0 h, 4.0 h, 6.0 h, 8.0 h, 11.0 h and 24.0 h after administration. The blood was placed in an EDTA-K2 anticoagulation tube and centrifuged at 10000 rpm for 1 min at 4° C. The plasma was separated within 1 h and stored at −20° C. before analysis. The process from blood collection to centrifugation was performed in an ice bath. Two hours after administration, feeding was resumed.
Intravenous administration group: The rats were injected intravenously with the compound of Example 2 and the comparative compound A, and the blood was collected before administration and 5 min, 15 min, 0.5 h, 1.0 h, 2.0 h, 4.0 h, 8.0 h, 11.0 h and 24.0 h after administration and treated in the same way as the blood of the intragastric administration group.
Determination of plasma concentrations in rats after intragastric administration and intravenous injection of the test compounds at different concentrations: 20 μL of rat plasma at each time point after administration was mixed with 50 μL of an internal standard solution (camptothecin, 100 ng/mL) and 200 μL of acetonitrile, and the mixture was vortexed for 5 min and centrifuged for 10 min at 3700-4000 rpm. 1.0-2.0 μL of supernatant of the plasma sample was taken for LC/MS/MS analysis.

Data set [2] concerns dextran sulfate sodium salt (DSS)-induced UC mice. Briefly: Prophylactic and therapeutic effects on DSS-induced ulcerative colitis (UC) in mice. Type of data set: in vivo, female C57BL/6 mice. The following applies: for efficacy on DSS-induced UC (conclusion in words): 50 mg/kg, body weight and colon length; for body weight decreasing rate / colon length, % of that of the normal control group: DSS-induced UC mice. As to the method:
In the experiment, female C57BL/6 mice from Vital River were selected to establish an ulcerative colitis (UC) model induced by dextran sulfate sodium salt (DSS), and the prophylactic and therapeutic effects of a positive compound ABX-464 (see compound 90 in WO2015001518A1) and compound 1 disclosed herein on the DSS-induced ulcerative colitis were evaluated.
Female C57BL/6 mice for experiments, purchased from Vital River Laboratory Animal Technology Co., Ltd. (production license number: SCXK (Zhejiang) 2019-0001, animal certification number: 20210401Abzz0619000795), weighing 20-22 g at the time of purchase, were bred at 5 mice/cage in an independent SPF space (in 12/12-hour light/dark cycle, at a constant temperature of 23±1° C. and a humidity of 50%-60%) and given ad libitum access to food and water. After purchase, the animals were acclimatized for at least 1 week, and then the experiment began.
The mice were randomly divided by body weight into the following 5 groups: normal control group (Naïve group), model group (DSS group), ABX-464 (50 mg/kg, p.o., qd) group, ABX-464 (50 mg/kg, p.o., bid) group, and compound 1 disclosed herein (50 mg/kg, p.o., bid) group. After acclimatization, the mice were subjected to 2.5% DSS feeding from day 0. After 7 days of DSS feeding, the mice were fed normal water until day 10. The corresponding solvents and drugs were administered intragastrically for 10 consecutive days from day 0 to day 10, and the mice were observed daily for changes in body weight from day 0 to day 10. On day 10, the mice were weighed, and the colon length was measured.
The experimental data are expressed as mean±standard error (SEM). Statistical comparison was performed using Excel software t-test. The data of the model group and the data of the normal control group were analyzed and compared. #P<0.05 indicates a significant difference between the model group and the normal control group, ##P<0.01 indicates a highly significant difference between the model group and the normal control group, and ###P<0.001 indicates a very highly significant difference between the model group and the normal control group. *P<0.05 indicates a significant difference between the administration group and the model group, **P<0.01 indicates a highly significant difference between the administration group and the model group, and ***P<0.001 indicates a very highly significant difference between the administration group and the model group.

Data set [3] relates to miR-124. Briefly: Up-regulation of miR-124 in CD3/CD28 antibody-activated T cells (SYBR green quantitative PCR). The following applies: T-cell, 72 h; activated human T cells, 1 μM compound, 3 days, relative to DMSO, U6 internal reference. In kind it is cell-based. Here is the method:
The effect of the compound on miR-124 expression levels was detected in CD3/CD28 antibody-activated T cells. After the activated T cells were treated with the compound, the total cellular RNA was extracted, the cDNA obtained from reverse transcription was used as a template, and quantification was performed by an SYBR green fluorescence quantitative PCR method using a specific miR-124 primer.
Isolation of T cells: Purchased human peripheral blood mononuclear cells (PBMCs) were counted, centrifuged, and washed once with a separation buffer (PBS, pH 7.4, containing 0.5% BSA and 2 mM EDTA), and the supernatant was discarded. The components were added in an amount of 40 μL of a buffer and 10 μL of pan T Cell Biotin-Antibody Cocktail per 1×10^7 cells, and the pellet was resuspended. The resulting suspension was mixed and incubated in a refrigerator at 4° C. for 5 min. After the incubation was completed, the components were added in an amount of 30 μL of a buffer and 20 μL of Pan T Cell MicroBeads Cocktail per 1×10^7 cells, and the resulting suspension was mixed and incubated in a refrigerator at 4° C. for 10 min. The separation column (LS column) was rinsed with 3 mL of a cell separation buffer in advance, loaded with the above cell suspension, and then repeatedly washed 3 times with 1 mL of the cell separation buffer. The effluent cell fluid was collected in a 15 mL centrifuge tube, thus giving the enriched T cells. The cells were counted and added at a density of 1×10^6 cells/mL to an RPMI1640 medium (complete medium) containing 10% FBS and 40) U/mL IL-2, and the resulting mixture was kept on ice for later use.
Activation of T cells: The corresponding Dynabead Human T-Activator CD3/CD28 for T Cell Expansion and Activation were added to a 1.5 mL centrifuge tube in an amount of 25 μL of the activated magnetic beads per 1×10^6 cells, which should be shaken on a shaker for about 30 s before aspiration. In the centrifuge tube, at a volume ratio of greater than 1:1, the activated magnetic beads were washed 3 times with a medium, and all the washing liquid was removed after the last washing. A complete medium with a volume equal to the starting volume was added to resuspend the activated magnetic beads. The washed activated magnetic beads were added to the cell resuspension, and the resulting mixture was well mixed. The cells were added to a six-well plate at 3 mL/well and incubated in a cell incubator at 37° C. with 5% CO2 for 2 days.
Compound treatment: A 20 mM compound stock solution was diluted to 200 μM with DMSO, and then diluted 4-fold to 50 μM (50)×) with a complete medium. The resulting mixture was well mixed for later use. 4-fold diluted DMSO (25% DMSO) was added to negative control wells. T cells were activated for two days and pipetted uniformly. The 1.5 mL centrifuge tube was mounted on a magnetic rack, and the activated magnetic beads were removed. The cell suspension was collected, and the cells were counted and then centrifuged at 300×g for 10 min to discard the supernatant. The cells were then resuspended to 1.02×10^6 cells/mL, and 980 μL of the cell suspension and 20 μL of the 50× compound were added to each 24-well plate, with the final concentration of the compound being 1 μM. The cells were placed in a cell incubator at 37° C. with 5% CO2 for another 3 days.
RNA extraction: T cells were collected by centrifugation at 1500 rpm for 3 min, washed once with PBS, and centrifuged again to discard the supernatant. The total cellular RNA was extracted using a microRNA extraction kit according to the package insert. 700 μL of a Trizol cell lysis buffer was added to the cell pellet, and the resulting mixture was pipetted uniformly and left at room temperature for 5 min. 140 μL of chloroform was added, and the resulting mixture was well mixed with shaking and left to stand at room temperature for 3 min. The chloroform-cell lysis buffer mixture was centrifuged at 12000×g and 4° C. for 15 min. […]

[4] abbreviates: po, intragastric administration, 2 mg/kg.

Where two headings read alike, the source gives them in different places.

A word on the AUC: it is the area under the concentration-time curve, a measure of exposure. The term half-life denotes the time in which the quantity being followed falls by half. In general, MRT refers to the average time that molecules of a dose stay in the body. For orientation: clearance means the volume of plasma or blood freed of the substance per unit of time. What is called fold induction is the ratio of treated to control signal. Read a high fold induction as a strong induction.

Regarding `O=C(O)[C@H]1O[C@@H](N(c2ccc(OC(F)(F)F)cc2)c2ccc3cccc(Cl)c3n2)[C@H](O)[C@@H](O)[C@@H]1O` [A, reference compound], in data set [1] (setting [4]), the Vd/F came out at 21.4 L/kg, the AUC was 311 ng·h/mL, the CL/F was 95.7 mL/min/kg and the half-life is 2.57 h. In data set [1] (setting [4]), the Cmax is 105 ng/mL and the mean residence time MRT is 3.76 h. Also, in data set [1] (intravenous injection, 1 mg/kg), the Vd turned out to be 0.151 L/kg, the AUC worked out at 11900 ng·h/mL, the clearance was 1.45 mL/min/kg and the half-life is 1.24 h. For the same molecule, in data set [1] (intravenous injection, 1 mg/kg), the MRT is 1.17 h.
With `FC(F)(F)Oc1ccc(Nc2ccc3cccc(Cl)c3n2)cc1` [ABX-464], the “efficacy on DSS-induced UC (conclusion in words)” value in data set [2] was “certain prophylactic and therapeutic effects on the DSS-induced UC”. Moreover, in data set [2] (day 10, 50 mg/kg p.o. bid), the “body weight decreasing rate” value was 10.3% and the “colon length, % of that of the normal control group” value (from here on “colon length, %”) turned out to be 89.3%. In addition, in data set [2] (day 10, 50 mg/kg p.o. qd), the “body weight decreasing rate” value worked out at 14.1% and the “colon length, %” value stood at 85.5%.
As to `FC1(F)Oc2ccc(Nc3ccc4cccc(Cl)c4n3)cc2O1` [Compound 1, 8-Chloro-N-(2,2-difluorobenzo[d][1,3]dioxol-5-yl)quinolin-2-amine], in data set [2], the “efficacy on DSS-induced UC (conclusion in words)” value is “better efficacy in terms of body weight and colon length than the positive drug ABX-464”. Also, in data set [2] (day 10, 50 mg/kg p.o. bid), the “body weight decreasing rate” value stood at 0.4% and the “colon length, %” value stood at 91.9%. This molecule registered a fold induction at 1 µM in data set [3] of 3.9.
Regarding `O=C(O)[C@H]1O[C@@H](N(c2ccc3c(c2)OC(F)(F)O3)c2ccc3cccc(Cl)c3n2)[C@H](O)[C@@H](O)[C@@H]1O` [Compound 2, (2S,3S,4S,5R,6R)-6-((8-Chloroquinolin-2-yl)(2,2-difluorobenzo[d][1,3]dioxol-5-yl)amino)-3,4,5-trihydroxytetrahydro-2H-pyran-2-carboxylic acid], in data set [3], the fold induction at 1 µM came to 1.2. For the same molecule, in data set [1] (setting [4]), the Vd/F was 6.18 L/kg, the AUC was 1220 ng·h/mL, the CL/F was determined as 28.7 mL/min/kg and the half-life was 2.47 h. For the same molecule, in data set [1] (setting [4]), the Cmax came to 242 ng/mL and the mean residence time (MRT) is 4.32 h. Further, in data set [1] (intravenous injection, 1 mg/kg), the Vd came out at 0.178 L/kg, the AUC worked out at 23000 ng·h/mL, the clearance stood at 0.781 mL/min/kg and the half-life is 2.85 h. Besides, the MRT in data set [1] (intravenous injection, 1 mg/kg) is 2.1 h. The “pharmacokinetic profile (conclusion in words)” value in data set [1] (compared to comparative compound A) is “good absorption profile and significant pharmacokinetic superiority as compared to the comparative compound A”.

The record behind these values is patent US20240327388A1, “QUINOLINAMINE COMPOUND, PREPARATION METHOD THEREFOR AND APPLICATION THEREOF IN PHARMACEUTICALS” (JIANGSU HENGRUI PHARMACEUTICALS CO., LTD., priority 2021, published 2024).
